Experimental data taken from patent publication US10800792B2, “Inhibitors of Bruton's tyrosine kinase and method of their use” (JANSSEN PHARMACEUTICA NV, priority 2015, dated 2020).

Biological target: unphosphorylated-BTK kinase domain (UP-BTK), GST-tagged human BTK (389-659aa) (Homo sapiens (Human), UniProt Q06187)
Assay: BTK kinase Lanthascreen binding assay
Settings: pIC50 = negative log of the IC50 in molar; 60 minutes incubation, 50 nM Tracer 236
Summary of the method: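 Lanthascreen competition binding; test compound vs fluorescent tracer on unphosphorylated BTK. Output: pIC50 (−log IC50, M).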

Chain of unphosphorylated-BTK kinase domain (UP-BTK), GST-tagged human BTK (389-659aa) (Q06187 389-659): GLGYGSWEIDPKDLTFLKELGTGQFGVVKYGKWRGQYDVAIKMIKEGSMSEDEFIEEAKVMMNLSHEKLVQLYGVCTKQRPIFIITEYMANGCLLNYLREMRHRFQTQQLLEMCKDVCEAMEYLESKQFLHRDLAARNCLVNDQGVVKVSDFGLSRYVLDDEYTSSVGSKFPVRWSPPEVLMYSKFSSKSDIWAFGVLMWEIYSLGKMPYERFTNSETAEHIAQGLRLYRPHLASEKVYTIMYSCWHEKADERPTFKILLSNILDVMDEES

BTK_I_binding pIC50	Compound
6.9	C=CC(=O)N1CCC[C@@H](NC(=O)c2sc3nccc4c3c2NC(=O)N4c2ccccc2F)C1 [Example 194, (R)—N-(1-Acryloylpiperidin-3-yl)-5-(2-fluorophenyl)-4-oxo-4,5-dihydro-3H-1-thia-3,5,8-triazaacenaphthylene-2-carboxamide]
7.4	Cc1cc(Oc2ccccc2)ccc1N1C(=O)Nc2c(C(=O)N[C@@H]3CCCN(C(=O)/C(C#N)=C\C(C)(C)N)C3)sc3nccc1c23 [Example 195, (R,Z)—N-(1-(4-Amino-2-cyano-4-methylpent-2-enoyl)piperidin-3-yl)-5-(2-methyl-4-phenoxyphenyl)-4-oxo-4,5-dihydro-3H-1-thia-3,5,8-triazaacenaphthylene-2-carboxamide]
6.8	Cc1cc(Oc2ccccc2)ccc1N1C(=O)Nc2c(C(=O)N[C@@H]3CCCN(C(=O)/C(C#N)=C/C4(N)CC4)C3)sc3nccc1c23 [Example 196, (R,E)-N-(1-(3-(1-Aminocyclopropyl)-2-cyanoacryloyl)piperidin-3-yl)-5-(2-methyl-4-phenoxyphenyl)-4-oxo-4,5-dihydro-3H-1-thia-3,5,8-triazaacenaphthylene-2-carboxamide]
6.8	Cc1cc(Oc2ccccc2)ccc1N1C(=O)Nc2c(C(=O)N[C@H]3CNC[C@@H](O)C3)sc3nccc1c23 [Example 197, N-((3R,5S)-5-Hydroxypiperidin-3-yl)-5-(2-methyl-4-phenoxyphenyl)-4-oxo-4,5-dihydro-3H-1-thia-3,5,8-triazaacenaphthylene-2-carboxamide]
7.0	Cc1cc(Oc2ccccc2)ccc1N1C(=O)Nc2c(C(=O)N[C@@H]3CCCN(C(=O)[C@@H]4CCOC4)C3)sc3nccc1c23 [Example 198, 5-(2-Methyl-4-phenoxyphenyl)-4-oxo-N—((R)-1-((R)-tetrahydrofuran-3-carbonyl)piperidin-3-yl)-4,5-dihydro-3H-1-thia-3,5,8-triazaacenaphthylene-2-carboxamide]
6.6	Cc1cc(Oc2ccccc2)ccc1N1C(=O)Nc2c(C(=O)N[C@@H]3CCCN(C(=O)/C=C/C4CC4)C3)sc3nccc1c23 [Example 199, (R,E)-N-(1-(3-Cyclopropylacryloyl)piperidin-3-yl)-5-(2-methyl-4-phenoxyphenyl)-4-oxo-4,5-dihydro-3H-1-thia-3,5,8-triazaacenaphthylene-2-carboxamide]
6.6	Cc1cc(Oc2ccccc2)ccc1N1C(=O)Nc2c(C(=O)N[C@H]3CN(C)C[C@H]3O)sc3nccc1c23 [Example 200, N-((3S,4R)-4-Hydroxy-1-methylpyrrolidin-3-yl)-5-(2-methyl-4-phenoxyphenyl)-4-oxo-4,5-dihydro-3H-1-thia-3,5,8-triazaacenaphthylene-2-carboxamide]
6.6	Cc1cc(Oc2ccccc2C2CC2)ccc1N1C(=O)Nc2c(C(=O)N[C@@H]3CCCN(C)C3)sc3nccc1c23 [Example 201, (R)-5-(4-(2-Cyclopropylphenoxy)-2-methylphenyl)-N-(1-methylpiperidin-3-yl)-4-oxo-4,5-dihydro-3H-1-thia-3,5,8-triazaacenaphthylene-2-carboxamide]
6.7	Cc1cc(Oc2ccccc2)ccc1N1C(=O)Nc2c(C(=O)NC3CNC(=O)C3)sc3nccc1c23 (stereo not shown) [Example 202, 5-(2-Methyl-4-phenoxyphenyl)-4-oxo-N-(5-oxopyrrolidin-3-yl)-4,5-dihydro-3H-1-thia-3,5,8-triazaacenaphthylene-2-carboxamide]
6.5	Cc1cc(Oc2ccccc2)ccc1N1C(=O)Nc2c(C(=O)NC3CCN(C)C(C)C3)sc3nccc1c23 (stereo not shown) [Example 203, N-(1,2-Dimethylpiperidin-4-yl)-5-(2-methyl-4-phenoxyphenyl)-4-oxo-4,5-dihydro-3H-1-thia-3,5,8-triazaacenaphthylene-2-carboxamide]
6.9	C=C(C)C(=O)N1CCC[C@@H](NC(=O)c2sc3nccc4c3c2NC(=O)N4c2ccc(Oc3ccccc3)cc2C)C1 [Example 204, (R)—N-(1-Methacryloylpiperidin-3-yl)-5-(2-methyl-4-phenoxyphenyl)-4-oxo-4,5-dihydro-3H-1-thia-3,5,8-triazaacenaphthylene-2-carboxamide]
6.8	Cc1cc(Oc2ccccc2)ccc1N1C(=O)Nc2c(C(=O)NC3CCCN(C(=O)C4CC4)C3)sc3nccc1c23 (stereo not shown) [Example 205, N-(1-(Cyclopropanecarbonyl)piperidin-3-yl)-5-(2-methyl-4-phenoxyphenyl)-4-oxo-4,5-dihydro-3H-1-thia-3,5,8-triazaacenaphthylene-2-carboxamide]
7.1	Cc1cc(Oc2ccccc2)ccc1N1C(=O)Nc2c(C(=O)NC3CCCCN(C)C3)sc3nccc1c23 (stereo not shown) [Example 206, 5-(2-Methyl-4-phenoxyphenyl)-N-(1-methylazepan-3-yl)-4-oxo-4,5-dihydro-3H-1-thia-3,5,8-triazaacenaphthylene-2-carboxamide]
7.1	Cc1cc(Oc2ccccc2)ccc1N1C(=O)Nc2c(C(=O)N[C@@H]3CCCN(C(=O)[C@H]4CCOC4)C3)sc3nccc1c23 [Example 207, 5-(2-Methyl-4-phenoxyphenyl)-4-oxo-N—((R)-1-((S)-tetrahydrofuran-3-carbonyl)piperidin-3-yl)-4,5-dihydro-3H-1-thia-3,5,8-triazaacenaphthylene-2-carboxamide]
6.8	CO[C@@H]1CN(C)C[C@@H]1NC(=O)c1sc2nccc3c2c1NC(=O)N3c1ccc(Oc2ccccc2)cc1C [Example 208, N-((3S,4R)-4-Methoxy-1-methylpyrrolidin-3-yl)-5-(2-methyl-4-phenoxyphenyl)-4-oxo-4,5-dihydro-3H-1-thia-3,5,8-triazaacenaphthylene-2-carboxamide]
7.1	C=CC(=O)N1CC[C@@H](NC(=O)c2sc3nccc4c3c2NC(=O)N4c2c(Cl)ccc3c2OCO3)C1 [Example 209, (R)—N-(1-Acryloylpyrrolidin-3-yl)-5-(5-chlorobenzo[d][1,3]dioxol-4-yl)-4-oxo-4,5-dihydro-3H-1-thia-3,5,8-triazaacenaphthylene-2-carboxamide]
6.7	Cc1cccc(Oc2ccc(N3C(=O)Nc4c(C(=O)N[C@@H]5CCCN(C)C5)sc5nccc3c45)c(C)c2)c1 [Example 210, (R)-5-(2-Methyl-4-(m-tolyloxy)phenyl)-N-(1-methylpiperidin-3-yl)-4-oxo-4,5-dihydro-3H-1-thia-3,5,8-triazaacenaphthylene-2-carboxamide]
6.7	CO[C@@H]1CNC[C@@H]1NC(=O)c1sc2nccc3c2c1NC(=O)N3c1ccc(Oc2ccccc2)cc1C [Example 211, N-((3S,4R)-4-Methoxypyrrolidin-3-yl)-5-(2-methyl-4-phenoxyphenyl)-4-oxo-4,5-dihydro-3H-1-thia-3,5,8-triazaacenaphthylene-2-carboxamide]
7.0	CCNC(C)(C)/C=C(\C#N)C(=O)N1CCC[C@@H](NC(=O)c2sc3nccc4c3c2NC(=O)N4c2ccc(Oc3ccccc3)cc2C)C1 [Example 212, (R,E)-N-(1-(2-Cyano-4-(ethylamino)-4-methylpent-2-enoyl)piperidin-3-yl)-5-(2-methyl-4-phenoxyphenyl)-4-oxo-4,5-dihydro-3H-1-thia-3,5,8-triazaacenaphthylene-2-carboxamide]
6.5	Cc1cc(Oc2ccccc2)ccc1N1C(=O)Nc2c(C(=O)N[C@@H]3CCCN(C4CC4)C3)sc3nccc1c23 [Example 213, (R)—N-(1-Cyclopropylpiperidin-3-yl)-5-(2-methyl-4-phenoxyphenyl)-4-oxo-4,5-dihydro-3H-1-thia-3,5,8-triazaacenaphthylene-2-carboxamide]
6.8	Cc1cc(Oc2cccc(F)c2)ccc1N1C(=O)Nc2c(C(=O)N[C@@H]3CCCN(C)C3)sc3nccc1c23 [Example 214, (R)-5-(4-(3-Fluorophenoxy)-2-methylphenyl)-N-(1-methylpiperidin-3-yl)-4-oxo-4,5-dihydro-3H-1-thia-3,5,8-triazaacenaphthylene-2-carboxamide]
7.2	COCCC(=O)N1CCC[C@@H](NC(=O)c2sc3nccc4c3c2NC(=O)N4c2ccc(Oc3ccccc3)cc2F)C1 [Example 215, (R)-5-(2-Fluoro-4-phenoxyphenyl)-N-(1-(3-methoxypropanoyl)piperidin-3-yl)-4-oxo-4,5-dihydro-3H-1-thia-3,5,8-triazaacenaphthylene-2-carboxamide]
6.7	C=CC(=O)N1CCC[C@@H](NC(=O)c2sc3nccc4c3c2NC(=O)N4c2ccccc2C)C1 [Example 216, (R)—N-(1-Acryloylpiperidin-3-yl)-4-oxo-5-(o-tolyl)-4,5-dihydro-3H-1-thia-3,5,8-triazaacenaphthylene-2-carboxamide]
6.5	Cc1cc(Oc2ccccc2)ccc1N1C(=O)Nc2c(C(=O)NCCN3CCNC3=O)sc3nccc1c23 [Example 217, 5-(2-Methyl-4-phenoxyphenyl)-4-oxo-N-(2-(2-oxoimidazolidin-1-yl)ethyl)-4,5-dihydro-3H-1-thia-3,5,8-triazaacenaphthylene-2-carboxamide]
6.8	Cc1cc(Oc2ccccc2)ccc1N1C(=O)Nc2c(C(=O)N[C@H]3CNC[C@@H]3F)sc3nccc1c23 [Example 218, N-((3S,4S)-4-Fluoropyrrolidin-3-yl)-5-(2-methyl-4-phenoxyphenyl)-4-oxo-4,5-dihydro-3H-1-thia-3,5,8-triazaacenaphthylene-2-carboxamide]
